Laboratory results reported in PMC7029851, “Antibacterial activity of novel dual bacterial DNA type II topoisomerase inhibitors” (PLoS ONE, 2020).
Converted amounts (≈) assume the structure as drawn. Counter-ions that a name gives are not always drawn. Like-named read-outs stand apart in the source and are kept apart here.

How the values were obtained:
C. difficile ATCC 700057 = assay: MIC, broth microdilution; type: cell-based, Clostridium difficile; conditions: Clostridioides difficile, ATCC700057
Description: MICs were determined by the broth microdilution method (the agar dilution method was used only for N. gonorrhoeae) according to CLSI guidelines. […] The MIC values of antibiotics used in clinical practice were interpreted according to the susceptibility interpretive criteria reported in the appropriate CLSI Tables (M100-S25, CLSI, 2015).

[1] = system: C. difficile clinical isolates (n = 21); assay: MIC, multidrug-resistant clinical isolates; type: cell-based, Clostridium difficile; conditions: Clostridioides difficile; for MIC: read-out: MIC range
Description: (§1) The bacterial reference strains used in this study were purchased from ATCC (American Type Culture Collection) via LGC Standards (Middlesex, UK). […] Clinical MDR isolates were provided by Aptuit, the IHMA Europa Sàrl repository (Epalinges, Switzerland) and the Statens Serum Institute (Copenhagen, Denmark).
(§2) MICs were determined by the broth microdilution method (the agar dilution method was used only for N. gonorrhoeae) according to CLSI guidelines.
(§3) The results obtained using clinical isolates are reported as MIC50 and MIC90 values.

[2] = system: E. faecalis clinical isolates (n = 12) vanA (6)/vanB (6); assay: MIC, multidrug-resistant clinical isolates; type: cell-based; conditions: for MIC: read-out: MIC range
Description: as §1, §2, §3

[3] = system: E. faecium clinical isolates (n = 12) vanA (6)/vanB (6); assay: MIC, multidrug-resistant clinical isolates; type: cell-based; conditions: for MIC: read-out: MIC range
Description: as §1, §2, §3

[4] = system: E. coli clinical isolates (n = 36); assay: MIC, multidrug-resistant clinical isolates; type: cell-based, Escherichia coli; conditions: E. coli MDR clinical isolates (n = 36)
Description: as §1, §2, §3

E. coli ATCC 25922 = assay: Minimal bactericidal concentration; type: cell-based, Escherichia coli; conditions: Escherichia coli, ATCC25922, ≥99.9% reduction of inoculum
Description: (§4) Minimal bactericidal concentrations (MBCs) were determined according to the procedure described by Knapp. Viable counts were performed after plates were incubated at 37°C for 24 hours. The MBC was defined as the lowest concentration that reduced the viability of the initial bacterial inoculum by ≥99.9%.

S. aureus ATCC 29213 [5] = assay: Post-antibiotic effect (PAE); type: cell-based, Staphylococcus aureus
Description: A drug-free control was included in each experiment. After being exposed to the drug for 1 hour, viable counts were conducted in triplicate by spotting aliquots (10 μl) of suitable dilutions onto MHA plates. The drugs were removed by diluting the bacterial cultures (1:1000) in Cation-Adjusted Mueller-Hinton Broth (CAMHB; Sigma-Aldrich). The diluted cultures were incubated in a shaking bath at 37°C. To monitor the ongoing suppression of bacterial growth over time (5 hours), aliquots from each broth culture were periodically collected, diluted and plated to perform subsequent viable counts (in triplicate).

S. aureus ATCC BAA-1720 = assay: Time-kill assay; type: cell-based, Staphylococcus aureus; conditions: 1× to 4× MIC, over 24 hours
Description: Time-kill experiments were performed according to the procedure reported by Knapp. […] A drug-free control was included in each experiment. The bacterial cultures were standardized to obtain an initial inoculum that ranged from 5×10^5 to 5×10^6 CFU/ml. The cultures were incubated at 37°C in a shaking bath. At 0, 2, 4, 8 and 24-hour intervals, viable counts were performed by spotting (in triplicate) 10 μl aliquots of suitable dilutions of the cultures onto Mueller-Hinton agar (MHA, Oxoid, Basingstoke, UK) plates. After incubation at 37°C for 24 hours, the bactericidal activity, namely, the ability to reduce the initial inoculum by 3 log10 CFU/ml, was assessed for each tested concentration over time.

S. aureus ATCC 29213 [6] = assay: Minimal bactericidal concentration; type: cell-based, Staphylococcus aureus; conditions: Staphylococcus aureus, ATCC29213, ≥99.9% reduction of inoculum
Description: as §4

S. aureus BAA-1720 = assay: Minimal bactericidal concentration; type: cell-based, Staphylococcus aureus; conditions: Staphylococcus aureus, BAA1720, ≥99.9% reduction of inoculum
Description: as §4

[7] = system: S. aureus clinical isolates (n = 10); assay: microbe, parasite or virus in culture; type: cell-based, Staphylococcus aureus
Description: as §1, §2, §3

[8] = system: A. baumannii clinical isolates (n = 10); assay: microbe, parasite or virus in culture; type: cell-based, Acinetobacter baumannii; conditions: Acinetobacter baumannii
Description: as §1, §2, §3

[9] = system: N. gonorrhoeae clinical isolates (n = 38); assay: microbe, parasite or virus in culture; type: cell-based, Neisseria gonorrhoeae
Description: as §1, §2, §3

[10] = C. difficile clinical isolates (n = 21), read-out: MIC50
[11] = C. difficile clinical isolates (n = 21), read-out: MIC90
[12] = C. difficile clinical isolates (n = 21)
[13] = E. faecalis clinical isolates (n = 12), vanA (6)/vanB (6)
[14] = E. faecium clinical isolates (n = 12), vanA (6)/vanB (6)
[15] = Escherichia coli, read-out: MIC50
[16] = Escherichia coli, read-out: MIC90

Cc1ncc([N+](=O)[O-])n1CCO [metronidazole, reference compound]
MIC (C. difficile ATCC 700057): 0.25 µg/mL (≈ 1.46 µM)
MIC50 [1, 10]: 0.5 µg/mL (≈ 2.92 µM)
MIC90 [1, 11]: 1 µg/mL (≈ 5.84 µM)
MIC [1, 12]: 0.25 to 2 µg/mL (≈ 1.46 to 11.7 µM)

teicoplanin [reference compound]
MIC50 [2, 13]: >64 µg/mL
MIC90 [2, 13]: >64 µg/mL
MIC50 [3, 14]: 1 µg/mL
MIC90 [3, 14]: 64 µg/mL

CCc1c(Cl)c(O)c(Cl)c(O)c1C(=O)O[C@H]1[C@H](O)[C@H](OC)[C@H](OC/C2=C\C=C\C[C@H](O)/C(C)=C/[C@H](CC)[C@@H](O[C@@H]3OC(C)(C)[C@@H](OC(=O)C(C)C)[C@H](O)[C@@H]3O)/C(C)=C/C(C)=C/C[C@@H]([C@@H](C)O)OC2=O)O[C@@H]1C [fidaxomicin, reference compound]
MIC [1, 12]: 0.03 to 1 µg/mL (≈ 0.0284 to 0.945 µM)

CCCCCCCCCC(=O)N[C@@H](Cc1c[nH]c2ccccc12)C(=O)N[C@H](CC(N)=O)C(=O)N[C@@H](CC(=O)O)C(=O)N[C@@H]1C(=O)NCC(=O)N[C@@H](CCCN)C(=O)N[C@@H](CC(=O)O)C(=O)N[C@H](C)C(=O)N[C@@H](CC(=O)O)C(=O)NCC(=O)N[C@H](CO)C(=O)N[C@@H]([C@H](C)CC(=O)O)C(=O)N[C@@H](CC(=O)c2ccccc2N)C(=O)O[C@@H]1C [daptomycin, reference compound]
MIC50 ([2]; Enterococcus faecalis): 1 µg/mL (≈ 0.617 µM)
MIC90 ([2]; Enterococcus faecalis): 1 µg/mL (≈ 0.617 µM)
MIC ([2]; Enterococcus faecalis): 0.5 to 2 µg/mL (≈ 0.309 to 1.23 µM)
MIC50 ([3]; Enterococcus faecium): 4 µg/mL (≈ 2.47 µM)
MIC90 ([3]; Enterococcus faecium): 4 µg/mL (≈ 2.47 µM)
MIC ([3]; Enterococcus faecium): 2 to 4 µg/mL (≈ 1.23 to 2.47 µM)

C[C@@H](O)[C@H]1C(=O)N2C(C(=O)O)=C(SCCN=CN)C[C@H]12 [imipenem, imipenem monohydrate, reference compound]
MIC50 [1, 10]: 8 µg/mL
MIC90 [1, 11]: 16 µg/mL
MIC [1, 12]: 2 to 16 µg/mL
MIC ([4]; Escherichia coli): 0.06 to 16 µg/mL
MIC50 [4, 15]: 0.12 µg/mL
MIC90 [4, 16]: 4 µg/mL

C[C@H]1COc2c(N3CCN(C)CC3)c(F)cc3c(=O)c(C(=O)O)cn1c23 [levofloxacin]
MIC range [4]: 0.03 to 32 µg/mL
MIC50 [4, 15]: 4 µg/mL (≈ 11.1 µM)
MIC90 [4, 16]: 16 µg/mL (≈ 44.3 µM)

CN(C)[C@@H]1C(O)=C(C(N)=O)C(=O)[C@@]2(O)C(O)=C3C(=O)c4c(O)cccc4[C@@](C)(O)[C@H]3C[C@@H]12 [tetracycline, tetracycline hydrochloride]
MIC50 [4, 15]: 16 µg/mL
MIC90 [4, 16]: > 64 µg/mL

O=C(O)c1cn(C2CC2)c2cc(N3CCNCC3)c(F)cc2c1=O [ciprofloxacin, Ciprofloxacin hydrochloride, reference compound]
MBC (E. coli ATCC 25922): 0.016 µg/mL
PAE (S. aureus ATCC 29213 [5]; 1-hour exposure at 1× and 4× MIC): 25 min
PAE (S. aureus ATCC 29213 [5]; 1-hour exposure at 16× MIC): 35 min
Bactericidal activity in time-kill (reduction of 3 log10 CFU/ml) (S. aureus ATCC BAA-1720): no bactericidal effect
MBC (S. aureus ATCC 29213 [6]): 1 µg/mL
MBC (S. aureus BAA-1720): 256 µg/mL

CC1(C)S[C@@H]2[C@H](NC(=O)Cc3ccccc3)C(=O)N2[C@H]1C(=O)O [penicillin, penicillin G potassium, reference compound]
MIC50 ([2]; Enterococcus faecalis): 4 µg/mL
MIC90 ([2]; Enterococcus faecalis): 8 µg/mL
MIC ([2]; Enterococcus faecalis): 2 to 16 µg/mL
MIC50 ([3]; Enterococcus faecium): > 64 µg/mL
MIC90 ([3]; Enterococcus faecium): > 64 µg/mL
MIC ([3]; Enterococcus faecium): > 64 µg/mL

CN[C@H](CC(C)C)C(=O)N[C@H]1C(=O)N[C@@H](CC(N)=O)C(=O)N[C@H]2C(=O)N[C@H]3C(=O)N[C@H](C(=O)N[C@H](C(=O)O)c4cc(O)cc(O)c4-c4cc3ccc4O)[C@H](O)c3ccc(c(Cl)c3)Oc3cc2cc(c3O[C@@H]2O[C@H](CO)[C@@H](O)[C@H](O)[C@H]2O[C@H]2C[C@](C)(N)[C@H](O)[C@H](C)O2)Oc2ccc(cc2Cl)[C@H]1O [vancomycin, vancomycin hydrochloride, reference compound]
MIC50 ([2]; Enterococcus faecalis): > 64 µg/mL
MIC90 ([2]; Enterococcus faecalis): > 64 µg/mL
MIC50 ([3]; Enterococcus faecium): > 64 µg/mL
MIC90 ([3]; Enterococcus faecium): > 64 µg/mL
MIC ([3]; Enterococcus faecium): > 64 µg/mL
MIC50 [1]: 2 µg/mL
MIC90 [1]: 2 µg/mL
MIC [1]: 1 to 2 µg/mL
MIC range ([7]; S. aureus MDR clinical isolates (n = 10)): 1 to 4 µg/mL
MIC50 ([7]; Staphylococcus aureus): 1 µg/mL
MIC90 ([7]; Staphylococcus aureus): 2 µg/mL

CCC[C@@H]1C[C@@H](C(=O)N[C@@H]([C@H]2O[C@H](SC)[C@H](O)[C@@H](O)[C@H]2O)[C@H](C)Cl)N(C)C1 [clindamycin, clindamycin hydrochloride, reference compound]
MIC50 [1, 10]: 8 µg/mL
MIC90 [1, 11]: 32 µg/mL
MIC [1, 12]: 4 to 32 µg/mL

CC(=O)NC[C@H]1CN(c2ccc(N3CCOCC3)c(F)c2)C(=O)O1 [linezolid, reference compound]
MIC50 ([2]; Enterococcus faecalis): 2 µg/mL (≈ 5.93 µM)
MIC90 ([2]; Enterococcus faecalis): 2 µg/mL (≈ 5.93 µM)
MIC ([2]; Enterococcus faecalis): 1 to 2 µg/mL (≈ 2.96 to 5.93 µM)
MIC50 ([3]; Enterococcus faecium): 2 µg/mL (≈ 5.93 µM)
MIC90 ([3]; Enterococcus faecium): 2 µg/mL (≈ 5.93 µM)
MIC ([3]; Enterococcus faecium): 2 µg/mL (≈ 5.93 µM)

CNC(C)C1CCC(N)C(OC2C(N)CC(N)C(OC3OCC(C)(O)C(NC)C3O)C2O)O1 (stereo not drawn) [gentamicin, gentamicin sulfate]
MIC50 [4, 15]: 2 µg/mL
MIC90 [4, 16]: 32 µg/mL

C[C@@H](O)[C@H]1C(=O)N2C(C(=O)O)=C(S[C@@H]3CN[C@H](C(=O)N(C)C)C3)[C@H](C)[C@H]12 [meropenem, reference compound]
MIC50 [8]: 8 µg/mL (≈ 20.9 µM)
MIC90 [8]: ≥ 8 µg/mL

CC1(C)S[C@@H]2[C@H](NC(=O)[C@H](N)c3ccccc3)C(=O)N2[C@H]1C(=O)O [ampicillin, reference compound]
MIC50 ([2]; Enterococcus faecalis): 2 µg/mL (≈ 5.72 µM)
MIC90 ([2]; Enterococcus faecalis): 2 µg/mL (≈ 5.72 µM)
MIC ([2]; Enterococcus faecalis): 1 to 4 µg/mL (≈ 2.86 to 11.4 µM)
MIC50 ([3]; Enterococcus faecium): > 64 µg/mL
MIC90 ([3]; Enterococcus faecium): > 64 µg/mL
MIC ([3]; Enterococcus faecium): > 64 µg/mL
MIC50 [4, 15]: > 64 µg/mL
MIC90 [4, 16]: > 64 µg/mL

colistin sulfate
MIC50 [4]: 0.5 µg/mL
MIC90 [4]: 0.5 µg/mL

CO/N=C(\C(=O)N[C@@H]1C(=O)N2C(C(=O)O)=C(CSc3nc(=O)c(=O)[nH]n3C)CS[C@H]12)c1csc(N)n1 [ceftriaxone, ceftriaxone sodium, reference compound]
MIC range [9]: ≤0.002 to 0.12 µg/mL
MIC50 ([9]; Neisseria gonorrhoeae): 0.012 µg/mL
MIC90 ([9]; Neisseria gonorrhoeae): 0.094 µg/mL
MIC range [4]: 0.03 to 32 µg/mL
MIC50 [4, 15]: 1 µg/mL
MIC90 [4, 16]: 32 µg/mL
